Assay results taken from US11879140B2, “P21 mRNA targeting DNAzymes” (1E Therapeutics Ltd., priority 2020, dated 2024).

The substances below were run on senescent human IMR-90 fibroblast cells.
Format: cell-based
Description: Human IMR-90, BJ, WI-38 fibroblasts and REC epithelial cells were obtained from ATCC and grown at 5% oxygen. IMR-90 and REC cells were maintained in DMEM medium comprising 100 units per ml of penicillin, […] of streptomycin and 10% fetal bovine serum. BJ and WI-38 cells were maintained in EMEM medium comprising 100 units per ml of penicillin, […] of streptomycin, 10% fetal bovine serum, 1% Pyruvate, 1% L-Glutamine, mLFs were isolated according to standard procedures [Seluanov, A., et al. J Vis Exp (2010) (44):2033] and grown at 5% oxygen. Cells were maintained in EMEM medium comprising 100 units per ml of penicillin, […] of streptomycin and 15% fetal bovine serum.
DNA damage induced senescence (DIS) was induced by etoposide treatment (E1383, Sigma) at a concentration of […] for IMR-90, BJ, and WI-38, 16 μM for mLF and 12.5 μM for REC for a duration of 48 hours. Cells acquired the senescence phenotype 7 days post treatment (determined by SA-beta-gal staining).
Oncogene Induced Senescence (OIS) was induced by means of retroviral infection with H-RasG12 (pLNCX2) at 5% oxygen. Retroviruses were packaged, and infections were performed as described below.
Replicative Induced Senescence (RIS) was induced by long-term passaging of the cells in tissue culture. Cells acquired the senescence phenotype after 40 population doublings.
Primary target cells (IMR-90, BJ, […]) were plated in 24-well plates at 100,000 cells per well. Cells were transfected with different concentrations of DNAzymes (as depicted in Table 2, below) using Lipofectamine™ 2000 (Invitrogen) according to manufacturer instructions. The percentage of survival was determined based on quantification of remaining adherent cells using PrestoBlue® reagent (A13262, Life Technologies Ltd.) relative to Lipofectamine™ only control and compared to Scramble DNAzyme (Dz_Scramble) [Scramble Arm (Scr A) sequence: ATCTTCCTFggctagctacaacgaCGCCTCTCC, SEQ ID NO: 5, or Scramble catalytic core (Scr B) sequence: AGGAGAACAacagtaactggcgacGGGATGAGG, SEQ ID NO: 86] treated cells, 3-6 days following transfection.

Row | Substance | Validated cytotoxicity
1 | 75 (DNA CTCCTACCAGGCTAGCTACAACGACCCCTTCCT; chemistry not given here) [compound 75] | +
2 | 236 (DNA CGTATACATCCGAGCCGGACGAGCTGGGGAA; chemistry not given here) [compound 236] | +
3 | 354 (DNA CGGTTCTGAGGCTAGCTACAACGAATGGCGCCT; chemistry not given here) [compound 354] | +
4 | 224 (DNA TGGGGAAATCCGAGCCGGACGAGGGGCTCAG; chemistry not given here) [compound 224] | +
5 | 111 (DNA CATCCTTTAGGCTAGCTACAACGATTCTGGGGT; chemistry not given here) [compound 111] | +
6 | 78 (DNA TGTCTCCTAGGCTAGCTACAACGACATCCCCTT; chemistry not given here) [compound 78] | +
7 | 174 (DNA GCAAAGAAAGGCTAGCTACAACGAGACTATAGT; chemistry not given here) [compound 174] | +
8 | 1986 (DNA GCAATGAATCCGAGCCGGACGAGGGGAGGGA; chemistry not given here) [compound 1986] | +
9 | 1467 (DNA TTCACAAGAGGCTAGCTACAACGAAGAGGGGGG; chemistry not given here) [compound 1467] | +
10 | 1684 (DNA GAGAGGGTAGGCTAGCTACAACGATGAAGGGAA; chemistry not given here) [compound 1684] | +
11 | 1742 (DNA TCCAGTCCAGGCTAGCTACAACGATGAGCTGGG; chemistry not given here) [compound 1742] | +
12 | 1938 (DNA TTTGAGGGGGGCTAGCTACAACGACAGTGTCTC; chemistry not given here) [compound 1938] | +
13 | 304 (DNA TTTGTTGGTCCGAGCCGGACGAAGGAAGGGG; chemistry not given here) [compound 304] | +
14 | 237 (DNA CCGTATACAGGCTAGCTACAACGATGCTGGGGA; chemistry not given here) [compound 237] | +
15 | 2200 (DNA AGGCCAGTAGGCTAGCTACAACGAGTTACAGGA; chemistry not given here) [compound 2200] | +
16 | 387 (DNA GCTGCCGCAGGCTAGCTACAACGAGGGTTCTGA; chemistry not given here) [compound 387] | +
17 | 495 (DNA GAAGTTCCAGGCTAGCTACAACGACGCTCACGG; chemistry not given here) [compound 495] | +
18 | 1872 (DNA TAACCCCATCCGAGCCGGACGACAAGGGGGC; chemistry not given here) [compound 1872] | +
19 | 2215 (DNA GAGAGAAAAGGCTAGCTACAACGAAGTCCAGGC; chemistry not given here) [compound 2215] | +
20 | 1089 (DNA TAAATAGTAGGCTAGCTACAACGATTCATAAAA; chemistry not given here) [compound 1089] | +
21 | 974 (DNA GGGTATGTAGGCTAGCTACAACGAATGAGGAGG; chemistry not given here) [compound 974] | +
22 | 1504 (DNA GGGGTGGTTCCGAGCCGGACGAGCTCCAGGA; chemistry not given here) [compound 1504] | +
23 | 317 (DNA TGGTTGCAGGGCTAGCTACAACGAAGCTTTGTT; chemistry not given here) [compound 317] | +
24 | 1838 (DNA GGACCCTCAGGCTAGCTACAACGACCCCACAGC; chemistry not given here) [compound 1838] | +
25 | 835 (DNA AGGGCTTCTCCGAGCCGGACGACTTGGAGAA; chemistry not given here) [compound 835] | +
26 | 1791 (DNA TGCCTGAGGGGCTAGCTACAACGAAGAACTAGG; chemistry not given here) [compound 1791] | +
27 | 1786 (DNA GAGGTAGAAGGCTAGCTACAACGATAGGGTGCC; chemistry not given here) [compound 1786] | +
28 | 1719 (DNA GGGGTGGGAGGCTAGCTACAACGAAGGCACCTC; chemistry not given here) [compound 1719] | +

Row | Substance | Validated cytotoxicity
29 | 1591 (DNA CAAAAGGTAGGCTAGCTACAACGAAGGGGAGCC; chemistry not given here) [compound 1591] | +
30 | 1582 (DNA CAGGGGAGTCCGAGCCGGACGAAAAGAGGGA; chemistry not given here) [compound 1582] | +
31 | 377 (DNA GGGTTCTGAGGCTAGCTACAACGAGGACATCCC; chemistry not given here) [compound 377] | +
32 | 1013 (DNA TAATTCTAAGGCTAGCTACAACGAGCCAGAGGC; chemistry not given here) [compound 1013] | +
33 | 394 (DNA AGGCCTTGTCCGAGCCGGACGAGCCGCATGG; chemistry not given here) [compound 394] | +
34 | 846 (DNA GTGGGCGGAGGCTAGCTACAACGATAGGGCTTC; chemistry not given here) [compound 846] | +
35 | 442 (DNA AGTCGCGGTCCGAGCCGGACGACAGCTGCTC; chemistry not given here) [compound 442] | +
36 | 1252 (DNA GGGGGTGAAGGCTAGCTACAACGATTCATAACC; chemistry not given here) [compound 1252] | +
37 | 364 (DNA TGACGGACAGGCTAGCTACAACGACCCCAGCCG; chemistry not given here) [compound 364] | +
38 | 290 (DNA AGGGGAGGAGGCTAGCTACAACGATTGACGAGT; chemistry not given here) [compound 290] | +
39 | 1524 (DNA GAGGGGCCAGGCTAGCTACAACGAGAGGGCAGG; chemistry not given here) [compound 1524] | +
40 | 1800 (DNA TGCTTGAGTCCGAGCCGGACGAGCCTGAGGT; chemistry not given here) [compound 1800] | +
41 | 266 (DNA GTCTGTCTTCCGAGCCGGACGATGAATACTC; chemistry not given here) [compound 266] | +
42 | 1417 (DNA GCTCAGCCTCCGAGCCGGACGAAGGCTGTGC; chemistry not given here) [compound 1417] | +
43 | 1736 (DNA CCATTGAGTCCGAGCCGGACGAGGGGGTGGG; chemistry not given here) [compound 1736] | +
44 | 252 (DNA TACTCCCCAGGCTAGCTACAACGAATAGCCCGT; chemistry not given here) [compound 252] | +
45 | 100 (DNA TCTGGGGTTCCGAGCCGGACGATTAGAGGTC; chemistry not given here) [compound 100] | +
46 | 1683 (DNA AGAGGGTATCCGAGCCGGACGAGAAGGGAAA; chemistry not given here) [compound 1683] | +
47 | 1991 (DNA AAAGTGCAAGGCTAGCTACAACGAGAACTGGGG; chemistry not given here) [compound 1991] | +
48 | 185 (DNA CAGATCATGGGCTAGCTACAACGAAGCAAAGAA; chemistry not given here) [compound 185] | +
49 | 16 (DNA CCTCTTCTAGGCTAGCTACAACGAGCCAGAGCT; chemistry not given here) [compound 16] | +
50 | 1418 (DNA AGCTCAGCTCCGAGCCGGACGATAGGCTGTG; chemistry not given here) [compound 1418] | +
51 | 1947 (DNA GCTGGACGAGGCTAGCTACAACGATTGAGGGGC; chemistry not given here) [compound 1947] | +
52 | 1610 (DNA AAGGGTAGTCCGAGCCGGACGAGGGGCTCCT; chemistry not given here) [compound 1610] | +
53 | 225 (DNA CTGGGGAAAGGCTAGCTACAACGATGGGGCTCA; chemistry not given here) [compound 225] | +
54 | 2235 (DNA ACCAGGACAGGCTAGCTACAACGAATGGGGAGC; chemistry not given here) [compound 2235] | +
55 | 1967 (DNA TGGGGTGGAGGCTAGCTACAACGAGAGGAAGGT; chemistry not given here) [compound 1967] | +
